Measured values as given in BigSolDB 2.1.

Cl.N[C@@H](Cc1ccccc1)C(=O)OCc1ccccc1
solubility (mole fraction)
Details | 283.15 K | 288.15 K | 293.15 K | 298.15 K | 303.15 K | 313.15 K | 323.15 K
in acetone | 8e-05 | – | 0.000134 | – | 0.000224 | 0.000347 | 0.000511
in acetonitrile | 5.4e-05 | 0.000115 | 0.000188 | 0.000262 | 0.000365 | – | –
in ethanol | 0.00311 | – | 0.00396 | – | 0.00491 | 0.00625 | 0.00832
in ethyl acetate | – | 2.6e-05 | 3.8e-05 | – | 6.3e-05 | 0.000116 | 0.000181
in isobutanol | – | 0.00056 | 0.000879 | – | 0.00121 | 0.00174 | 0.00256
in isopropanol | 0.000417 | – | 0.000588 | – | 0.000882 | 0.00123 | 0.00178
in methanol | 0.0158 | – | 0.0186 | – | 0.0223 | 0.0274 | 0.0324
in n-butanol | 0.0011 | – | 0.0015 | – | 0.00191 | 0.00263 | 0.0039
in n-pentanol | 0.000703 | – | 0.00103 | – | 0.00158 | 0.00213 | 0.00307
in n-propanol | 0.00168 | – | 0.00203 | – | 0.00281 | 0.00386 | 0.00515
in water | 0.000969 | – | 0.0012 | – | 0.0015 | 0.00197 | 0.00266
